Laboratory results taken from patent US10676446B2, “Bicyclic quinazolinone derivatives” (Hoffmann-La Roche Inc., priority 2015, dated 2020).

Target: human ATX (autotaxin, ENPP2), His-tagged (Homo sapiens (Human), UniProt Q13822)
Assay: Human ATX enzyme inhibition assay (fluorescence quenching, MR121 substrate)
Assay type: biochemical
Settings: 30 nM ATX, 1 μM MR121 substrate, 30° C., pH 8.0
Protocol: Human ATX Enzyme Inhibition Assay
ATX inhibition was measured by a fluorescence quenching assay using a specifically labeled substrate analogue (MR121 substrate). To obtain this MR121 substrate, BOC and TBS protected 6-amino-hexanoic acid (R)-3-({2-[3-(2-{2-[2-(2-amino-ethoxy)-ethoxy]-ethoxy}-ethoxy)-propionylamino]-ethoxy}-hydroxy-phosphoryloxy)-2-hydroxy-propyl ester (Ferguson et al., Org. Lett. 2006, 8, 2023) was labeled with MR121 fluorophore [CAS RN 185308-24-1], 1-(3-carboxypropyl)-11-ethyl-1,2,3,4,8,9,10,11-octahydro-dipyrido[3,2-b:2′,3′-i]phenoxazin-13-ium) on the free amine of the ethanolamine side and then, after deprotection, subsequently with tryptophan on the side of the aminohexanoic acid.
Assay working solutions were made as follows:
Assay buffer (50 mM Tris-HCl, 140 mM NaCl, 5 mM KCl, 1 mM CaCl2, 1 mM MgCl2, 0.01% Triton-X-100, pH 8.0;
ATX solution: ATX (human His-tagged) stock solution (1.08 mg/mL in 20 mM bicine, pH 8.5, 0.15 M NaCl, 10% glycerol, 0.3% CHAPS, 0.02% NaN3), diluted to 1.4-2.5× final concentration in assay buffer;
MR121 substrate solution: MR121 substrate stock solution (800 μM MR121 substrate in DMSO), diluted to 2-5× final concentration in assay buffer.
Test compounds (10 mM stock in DMSO, 8 μL) were obtained in 384 well sample plates (Corning Costar #3655) and diluted with 8 μL DMSO. Row-wise serial dilutions were made by transferring 8 μL cpd solution to the next row up to row O. The compound and control solutions were mixed five times and 2 μL were transferred to 384 well assay plates (Corning Costar #3702). Then, 15 μL of 41.7 nM ATX solution was added (30 nM final concentration), mixed five times and then incubated for 15 minutes at 30° C. 10 μL of MR121 substrate solution was added (1 μM final concentration), mixed 30 times and then incubated for 15 minutes at 30° C.

| Structure (SMILES) | IC50 |
| --- | --- |
| O=C(Cn1cnc2ccc(N3CCN(CC4CCC4)CC3)cc2c1=O)NCc1ccc(Cl)c(Cl)c1 [Example 96] | 11 nM |
| O=C(Cn1cnc2ccc(N3CCN(CC4CCOC4)CC3)cc2c1=O)NCc1ccc(Cl)c(Cl)c1 (centres unmarked) [Example 97] | 4 nM |
| O=C(Cn1cnc2ccc(N3CCN(CC4CCOCC4)CC3)cc2c1=O)NCc1ccc(Cl)c(Cl)c1 [Example 98] | 44 nM |
| Cn1cccc1CN1CCN(c2ccc3ncn(CC(=O)NCc4ccc(Cl)c(Cl)c4)c(=O)c3c2)CC1 [Example 99] | 31 nM |
| O=C(Cn1cnc2ccc(N3CCN(Cc4ncc[nH]4)CC3)cc2c1=O)NCc1ccc(Cl)c(Cl)c1 [Example 100] | 204 nM |
| O=C(Cn1cnc2ccc(N3CCN(Cc4cnc[nH]4)CC3)cc2c1=O)NCc1ccc(Cl)c(Cl)c1 [Example 101] | 64 nM |
| O=C(Cn1cnc2ccc(N3CCN(Cc4ccoc4C(=O)O)CC3)cc2c1=O)NCc1ccc(Cl)c(Cl)c1 [Example 102] | 195 nM |
| Cc1nc(C)c(CN2CCN(c3ccc4ncn(CC(=O)NCc5ccc(Cl)c(Cl)c5)c(=O)c4c3)CC2)o1 [Example 103] | 288 nM |
| CN(Cc1ccc(Cl)c(Cl)c1)C(=O)Cn1cnc2ccc(N3CCN(CC4CC4)CC3)cc2c1=O [Example 104, 2-[6-[4-(Cyclopropylmethyl)piperazin-1-yl]-4-oxoquinazolin-3-yl]-N-[(3,4-dichlorophenyl)methyl]-N-methylacetamide] | 64 nM |
| COCCN1CCN(c2ccc3ncn(CC(=O)N(C)Cc4ccc(Cl)c(Cl)c4)c(=O)c3c2)CC1 [Example 105] | 59 nM |
| CN(Cc1ccc(Cl)c(Cl)c1)C(=O)Cn1cnc2ccc(N3CCN(CC4COC4)CC3)cc2c1=O [Example 106] | 132 nM |
| CNC(=O)CN1CCN(c2ccc3ncn(CC(=O)N(C)Cc4ccc(Cl)c(Cl)c4)c(=O)c3c2)CC1 [Example 107, N-[(3,4-Dichlorophenyl)methyl]-N-methyl-2-[6-[4-[2-(methylamino)-2-oxoethyl]piperazin-1-yl]-4-oxoquinazolin-3-yl]acetamide] | 67 nM |
| CN(C)C(=O)CN1CCN(c2ccc3ncn(CC(=O)N(C)Cc4ccc(Cl)c(Cl)c4)c(=O)c3c2)CC1 [Example 108] | 55 nM |
| CC(C)NC(=O)CN1CCN(c2ccc3ncn(CC(=O)N(C)Cc4ccc(Cl)c(Cl)c4)c(=O)c3c2)CC1 [Example 109] | 35 nM |
| CCN(CC)C(=O)CN1CCN(c2ccc3ncn(CC(=O)N(C)Cc4ccc(Cl)c(Cl)c4)c(=O)c3c2)CC1 [Example 110] | 34 nM |
| CN(Cc1ccc(Cl)c(Cl)c1)C(=O)Cn1cnc2ccc(N3CCN(CC(=O)N4CCOCC4)CC3)cc2c1=O [Example 111] | 35 nM |
| CN(Cc1ccc(Cl)c(Cl)c1)C(=O)Cn1cnc2ccc(N3CCN(CC(=O)Nc4ccccc4)CC3)cc2c1=O [Example 112] | 71 nM |
| N#Cc1ccc(CNC(=O)Cn2cnc3ccc(N4CCN(C(=O)C5COC5)CC4)cc3c2=O)c(Cl)c1 [Example 113, N-[(2-Chloro-4-cyanophenyl)methyl]-2-[6-[4-(oxetane-3-carbonyl)piperazin-1-yl]-4-oxoquinazolin-3-yl]acetamide] | 202 nM |
| CN(Cc1ccc(C#N)c(Cl)c1)C(=O)Cn1cnc2ccc(N3CCN(CC4CCOC4)CC3)cc2c1=O (centres unmarked) [Example 114, N-[(3-Chloro-4-cyanophenyl)methyl]-N-methyl-2-[4-oxo-6-[4-(oxolan-3-ylmethyl)piperazin-1-yl]quinazolin-3-yl]acetamide] | 26 nM |

| Structure (SMILES) | IC50 |
| --- | --- |
| CN(Cc1ccc(Cl)c(C#N)c1)C(=O)Cn1cnc2ccc(N3CCN(CC4CCOC4)CC3)cc2c1=O (centres unmarked) [Example 115, N-[(4-Chloro-3-cyanophenyl)methyl]-N-methyl-2-[4-oxo-6-[4-(oxolan-3-ylmethyl)piperazin-1-yl]quinazolin-3-yl]acetamide] | 29 nM |
| CCN(Cc1ccc(Cl)c(Cl)c1)C(=O)Cn1cnc2ccc(N3CCN(C(C)=O)CC3)cc2c1=O [Example 116, 2-[6-(4-Acetylpiperazin-1-yl)-4-oxoquinazolin-3-yl]-N-[(3,4-dichlorophenyl)methyl]-N-ethylacetamide] | 16 nM |
| CC(=O)N1CCN(c2ccc3ncn(CC(=O)N(Cc4ccc(Cl)c(Cl)c4)C(C)C)c(=O)c3c2)CC1 [Example 117, 2-[6-(4-Acetylpiperazin-1-yl)-4-oxoquinazolin-3-yl]-N-[(3,4-dichlorophenyl)methyl]-N-propan-2-ylacetamide] | 16 nM |
| CC(=O)N1CCCN(c2ccc3ncn(CC(=O)NCc4ccc(C(F)(F)F)cc4)c(=O)c3c2)CC1 [Example 119] | 649 nM |
| CC(=O)N1CCCN(c2ccc3ncn(CC(=O)N(C)Cc4ccc(C#N)c(Cl)c4)c(=O)c3c2)CC1 [Example 120] | 9 nM |
| CC(=O)N1CCCN(c2ccc3ncn(CC(=O)N(C)Cc4ccc(Cl)c(C#N)c4)c(=O)c3c2)CC1 [Example 121] | 20 nM |
| CC(=O)N1CCC(c2ccc3ncn(CC(=O)NCc4ccc(Cl)c(Cl)c4)c(=O)c3c2)CC1 [Example 122] | 12 nM |
| CC(=O)N1CCC(c2ccc3ncn(CC(=O)NCc4ccc(C(F)(F)F)cc4)c(=O)c3c2)CC1 [Example 123] | 67 nM |
| CC(=O)N1CCC(c2ccc3ncn(CC(=O)N(C)Cc4ccc(Cl)c(Cl)c4)c(=O)c3c2)CC1 [Example 124] | 7 nM |
| CC(=O)N1CCC(c2ccc3ncn(CC(=O)N(C)Cc4ccc(C#N)c(Cl)c4)c(=O)c3c2)CC1 [Example 125] | 7 nM |
| CC(=O)N1CCC(c2ccc3ncn(CC(=O)N(C)Cc4ccc(Cl)c(C#N)c4)c(=O)c3c2)CC1 [Example 126] | 12 nM |
| CC(=O)N1CCC(c2ccc3ncn(CC(=O)N(C)Cc4ccc(C#N)c(F)c4)c(=O)c3c2)CC1 [Example 127] | 9 nM |
| CC(=O)N1CCC(c2ccc3ncn(CC(=O)N(C)Cc4ccc(Cl)c(OC(F)(F)F)c4)c(=O)c3c2)CC1 [Example 128, 2-[6-(1-Acetylpiperidin-4-yl)-4-oxoquinazolin-3-yl]-N-[[4-chloro-3-(trifluoromethoxy)phenyl]methyl]-N-methylacetamide] | 15 nM |
| CN(Cc1ccc(C#N)c(Cl)c1)C(=O)Cn1cnc2ccc(N3CCCN(CC4CCOC4)CC3)cc2c1=O (centres unmarked) [Example 129, N-[(3-Chloro-4-cyanophenyl)methyl]-N-methyl-2-[4-oxo-6-[4-(oxolan-3-ylmethyl)-1,4-diazepan-1-yl]quinazolin-3-yl]acetamide] | 26 nM |
| CN(Cc1ccc(Cl)c(C#N)c1)C(=O)Cn1cnc2ccc(N3CCCN(CC4CCOC4)CC3)cc2c1=O (centres unmarked) [Example 130, N-[(4-Chloro-3-cyanophenyl)methyl]-N-methyl-2-[4-oxo-6-[4-(oxolan-3-ylmethyl)-1,4-diazepan-1-yl]quinazolin-3-yl]acetamide] | 111 nM |
| CN(Cc1ccc(C#N)c(Cl)c1)C(=O)Cn1cnc2ccc(C3CCN(C(=O)CO)CC3)cc2c1=O [Example 131, N-[(3-Chloro-4-cyanophenyl)methyl]-2-[6-[1-(2-hydroxyacetyl)piperidin-4-yl]-4-oxoquinazolin-3-yl]-N-methylacetamide] | 1 nM |
| COCC(=O)N1CCC(c2ccc3ncn(CC(=O)N(C)Cc4ccc(C#N)c(Cl)c4)c(=O)c3c2)CC1 [Example 132] | 12 nM |
| COC(C)C(=O)N1CCC(c2ccc3ncn(CC(=O)N(C)Cc4ccc(C#N)c(Cl)c4)c(=O)c3c2)CC1 (centres unmarked) [Example 133] | 1 nM |
| COCCC(=O)N1CCC(c2ccc3ncn(CC(=O)N(C)Cc4ccc(C#N)c(Cl)c4)c(=O)c3c2)CC1 [Example 134] | 1 nM |
